# From BindingDB's records for doi:10.1021/bi4011286 (University of Michigan, 2013)
# Legend:
# [1] = biological target: T1, DNA primase (Bacillus anthracis, UniProt A0A6L8PXB3); test: Quatitative Inhibition Analysis Assay; details: pH 8.8
# T1 sequence (A0A6L8PXB3 whole entry): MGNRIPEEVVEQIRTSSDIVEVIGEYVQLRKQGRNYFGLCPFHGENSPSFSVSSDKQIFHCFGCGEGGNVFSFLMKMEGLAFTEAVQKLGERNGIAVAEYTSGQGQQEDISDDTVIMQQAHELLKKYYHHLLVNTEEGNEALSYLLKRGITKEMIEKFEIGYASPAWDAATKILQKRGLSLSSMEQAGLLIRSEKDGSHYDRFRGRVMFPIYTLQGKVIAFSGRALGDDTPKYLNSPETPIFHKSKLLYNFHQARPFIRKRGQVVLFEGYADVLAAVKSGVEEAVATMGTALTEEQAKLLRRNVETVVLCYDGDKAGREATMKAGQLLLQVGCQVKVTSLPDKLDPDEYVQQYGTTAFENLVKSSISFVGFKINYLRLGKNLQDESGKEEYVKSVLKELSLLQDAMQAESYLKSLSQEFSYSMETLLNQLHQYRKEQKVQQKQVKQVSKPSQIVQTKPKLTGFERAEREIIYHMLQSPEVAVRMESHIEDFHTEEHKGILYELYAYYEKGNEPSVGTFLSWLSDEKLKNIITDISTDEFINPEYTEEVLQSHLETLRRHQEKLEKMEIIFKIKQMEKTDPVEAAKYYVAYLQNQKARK
# Procedure: (§1) The reaction mixture contained DNA (1.25 uM or as specified), NTP (110 uM or as specified), 50 mM NaCl, 150 mM potassium glutamate, buffer [20 mM CAPS (pH 8.8) or as specified], and divalent metals (2 mM Mn2+ and 1 mM Mg2+). The assay was performed in 96-well plates with 4 uM Ba DnaG.
# [2] = biological target: T2, DNA primase (Mycobacterium tuberculosis (strain CDC 1551 / Oshkosh), UniProt P9WNW0); test: Quatitative Inhibition Analysis Assay; details: pH 8.8
# T2 sequence (P9WNW0 whole entry): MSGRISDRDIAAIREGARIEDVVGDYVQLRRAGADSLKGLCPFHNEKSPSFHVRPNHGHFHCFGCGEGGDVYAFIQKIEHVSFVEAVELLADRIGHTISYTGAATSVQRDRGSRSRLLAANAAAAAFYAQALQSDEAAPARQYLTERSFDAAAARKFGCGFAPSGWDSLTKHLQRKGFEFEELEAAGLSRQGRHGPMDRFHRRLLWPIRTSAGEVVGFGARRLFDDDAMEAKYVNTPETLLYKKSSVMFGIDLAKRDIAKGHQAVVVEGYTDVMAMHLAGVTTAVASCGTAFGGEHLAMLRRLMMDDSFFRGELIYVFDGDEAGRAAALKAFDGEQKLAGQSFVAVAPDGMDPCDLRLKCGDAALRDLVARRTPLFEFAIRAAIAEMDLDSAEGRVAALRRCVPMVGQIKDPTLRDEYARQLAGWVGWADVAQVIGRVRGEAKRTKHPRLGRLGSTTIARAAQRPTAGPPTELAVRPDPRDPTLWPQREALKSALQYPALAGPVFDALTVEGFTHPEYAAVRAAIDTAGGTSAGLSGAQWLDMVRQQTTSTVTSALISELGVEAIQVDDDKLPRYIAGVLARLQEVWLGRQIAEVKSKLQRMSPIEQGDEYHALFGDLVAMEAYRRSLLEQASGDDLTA
# Procedure: as §1
Compound,IC50 [1],IC50 [2]
COc1cccc2c1C(=O)c1c(O)c3c(c(O)c1C2=O)C[C@@](O)(C(=O)CO)C[C@@H]3O[C@H]1C[C@H](N)[C@H](O)[C@H](C)O1 [Adriamycin],4.4 µM,9.3 µM
CCN(CC)CCOc1ccc2c(c1)C(=O)c1cc(OCCN(CC)CC)ccc1-2 [Amixin IC],7.1 µM,69 µM
O=c1oc2c(O)c(O)cc3c(=O)oc4c(O)c(O)cc1c4c23 [Elagic Acid],> 100 µM,–
C[C@H]1COc2c(N3CCN(C)CC3)c(F)cc3c(=O)c(C(=O)O)cn1c23 [Levaquin],75 µM,–
Cc1ccc(C(=O)Nc2ccc(S(=O)(=O)O)c3cc(S(=O)(=O)O)cc(S(=O)(=O)O)c23)cc1NC(=O)c1cccc(NC(=O)Nc2cccc(C(=O)Nc3cc(C(=O)Nc4ccc(S(=O)(=O)O)c5cc(S(=O)(=O)O)cc(S(=O)(=O)O)c45)ccc3C)c2)c1 [Suramin hexasodium],8.2 µM,–
